Measured values reported in patent US20050203155A1, “Imidazole compounds and human cellular proteins casein kinase I alpha, delta and epsilon as targets for medical intervention against Hepatitis C Virus infections” (priority 2002, published 2005).

Legend:
Huh-5-2 replicon cells = assay: Alamar Blue toxicity assay in Huh-5-2 replicon cells; assay type: cell-based, human; conditions: for % of cell viability: 3 days, Huh-5-2, percentage of DMSO controls
Source text: (§1) The Huh-5-2 cell line carries the persistant bicistronic replicon I389luc-ubi-neo/NS3-3′/5.1 that expresses a firefly luciferase-ubiquitin-neomycin phosphotransferase fusion protein under the control of the HCV 5′ UTR and the NS3-5B HCV polyprotein that harbors the cell culture adaptive mutation of NK5.1. (J. Virol. 75:4614-4624, 2001) and is driven by the EMCV-IRES. Autonomously replicating HCV RNA replicons are detectable by Northern blot or via expression of the luciferase part of the fusion protein in a luciferase reporter assay. For luciferase reporter assays, Huh-5-2 cells were seeded at 2500 cells per well in 96 well plates in medium without G418. […] On day 3 after addition of compounds, Alamar Blue™ solution (Serotec), which contains a redox indicator, was added to the cells to measure cell proliferation and compound cytotoxicity. After incubation for 3-4 hours, fluorescence was monitored at the wavelengths of 560 nm and 590 nm with a Wallac 1420 multilabel counter. For the luciferase assay, the cells were subsequently washed twice with PBS without sodium hydrogen carbonate (Life Technologies GmbH, Karlsruhe), and luciferase activity was determined with the LucLite Plus Assay Kit (Packard Bioscience B.V.) according to the manufacturer's instructions in a Wallac 1450 Microbeta Luminescence counter.

CKI isoforms α, δ and ε = assay: In-vitro kinase assay, GST-NS5A phosphorylation by Mono Q Peak I fractions of Huh-7 cells; assay type: biochemical, human; conditions: CKI-enriched partially purified Mono Q fraction of Huh-7 cells, FIG. 6A
Experimental: Confluent 15 cm dishes of Huh-7 cells were lysed in 500 μl lysis buffer per dish containing 20 mM Tris (tris-(hydroxymethyl)-amino methane) pH 8.0, 10 mM NaF (sodium fluoride), 2 mM MgCl2 (Magnesium chloride), 1 mM DTT (dithiothreitol), 2 mM EGTA (ethylene glycol-bis(β-amino-ethyl ether)-N,N,N′,N′-tetraacetic acid), 1 mM PMSF (phenylmethylsulfonyl fluoride), 0.1% NP40 (Nonidet P-40), 10 μg/ml Aprotinin, 10 μg/ml Leupeptin, and 1 mM orthovanadate. Lysates were cleared by centrifugation (20 min, 13000 rpm, 4° C.) and filtered using a 0.45 μm syringe filter (Nalgene). This cleared material was further purified by a 1 ml Mono Q column (Amersham Biosciences) equilibrated with lysis buffer without additives. After washing the column, bound proteins were eluted with lysis buffer containing 1 M NaCl in a step gradient modus. Eluted proteins were collected in 1 ml fractions, systematically pooled, dialysed against 50 mM Tris pH 7.5, 10 mM NaF, 1 mM DTT, 0.01% Triton X-100 and stored at −80° C. Chromatography runs were performed on a AKTA explorer 10 system (Amersham Biosciences). Samples were subsequently assayed by in-vitro kinase assays and western blot analysis.
GST-NS5A immobilized to Glutathione Sepharose 4B beads (Amersham Biosciences) was washed twice with 500 μl kinase buffer (50 mM Tris pH 7.5, 10 mM MgCl2, 0.5 mM DTT). […]

HCV replicons = assay: Luciferase reporter assay of HCV replicons in the Huh-5-2 cell line; assay type: cell-based, Hepatitis C Virus; conditions: for % activity (luciferase, replicon RNA levels): 3 days, Huh-5-2, percentage of DMSO controls
Source text: as §1

HCV RNA = assay: Metabolic labelling of HCV RNA in HCV replicon cell line 5-15 in the presence of actinomycin D; assay type: cell-based, Hepatitis C Virus; conditions: 50 μM, replicon cell line 5-15, actinomycin D, overnight [33P]-orthophosphate labelling
Experimental: 1×10^6 Huh7-5-15 replicon cells and Huh-pcDNA3 cells were seeded into 10 cm culture plates and grown as described. After 24 hours cells were washed with phosphate-free medium and incubated in phosphate-free medium supplemented with 10% phosphate-free calf serum. Actinomycin D at a final concentration of 5 μg/ml was added to the cells together with the tested compounds at final concentrations of 10 and 50 μM. After 30 minutes of incubation cells were supplemented with 200 μCi ^33P-orthophosphate per dish and incubated over night. After cell lysis, RNA isolation was performed using the RNeasy mini kit (QIAGEN) according to recommendations given by the manufacturer. Northern blot was carried out according to standard procedures and autoradiography of the membrane was performed.

**Q.** C[S+]([O-])c1ccc(-c2nc(-c3cccc(I)c3)c(-c3ccncc3)[nH]2)cc1 (centres unmarked) [Compound 39, 4-[5-(3-Iodo-phenyl)-2-(4-methanesulfinyl-phenyl)-3H-imidazole-4-yl]-pyridine] was tested. Which “% of cell viability” value (Huh-5-2 replicon cells; 1.25 μM) did it give?
**A.** 108%

**Q.** And the “% of cell viability” value (Huh-5-2 replicon cells; 2.5 μM)?
**A.** 105%

**Q.** What about the “% of cell viability” value (Huh-5-2 replicon cells; 5 μM) of the same molecule?
**A.** 109%

**Q.** And the “% of cell viability” value (Huh-5-2 replicon cells; 10 μM)?
**A.** 114%

**Q.** What about the “% of cell viability” value (Huh-5-2 replicon cells; 20 μM) of the same molecule?
**A.** 72%

**Q.** What about the Toxicity (Huh-5-2 replicon cells; up to a concentration of 10 μM, Huh-5-2) of the same molecule?
**A.** low

**Q.** And the “inhibitory effect on NS5A-phosphorylating kinase activity present in the Peak I fractions” value (CKI isoforms α, δ and ε)?
**A.** potent inhibitor

**Q.** And the “% activity (luciferase, replicon RNA levels)” value (from here on “% activity”) (HCV replicons; 1.25 μM)?
**A.** 117%

**Q.** And the “% activity” value (HCV replicons; 2.5 μM)?
**A.** 104%

**Q.** What about the “% activity” value (HCV replicons; 5 μM) of the same molecule?
**A.** 89%

**Q.** What about the “% activity” value (HCV replicons; 10 μM) of the same molecule?
**A.** 28%

**Q.** What about the “% activity” value (HCV replicons; 20 μM) of the same molecule?
**A.** 0%

**Q.** And the IC50 (HCV replicons; Hepatitis C virus, 72 h, Huh-5-2, 3 days, read-out: IC50, replication of subgenomic HCV replicon RNA in the luciferase reporter assay)?
**A.** 9 µM

**Q.** What about the “synthesis of HCV RNA” value (HCV RNA) of the same molecule?
**A.** reduced
